Data: US20240052028A1, “ENHANCEMENT OF ANTI-TUMOR PHAGOCYTOSIS” (The Board of Trustees of the Leland Stanford Junior …, priority 2020, published 2024)

Legend:
Format in all cases: cell-based, mouse
APMAP^KO Ramos cells = experiment: Time-lapse phagocytosis assay, uptake of pHrodo-labeled APMAP^KO Ramos cells by J774 macrophages with anti-CD20 antibodies and GPR84 agonists; conditions: at high concentrations of agonist, anti-CD20 antibodies (FIG. 12C)
Method: (§1) Time-lapse microscopy assay for phagocytosis J774 cells were lifted by scraping, counted, and plated in 24 well tissue culture plates at a density of 100,000 cells per well in 0.5 ml media 48 h prior to the start of the experiment. At 24 h after plating, media was aspirated and replaced with fresh media containing 10 ng ml^−1 lipopolysaccharide (LPS) (Sigma). On the day of the experiment, target cells that had been transduced with sgRNAs, co-expressed with GFP and PuroR, and selected with puromycin as described above, were lifted, pelleted, and counted. Cells were washed three times in dPBS, incubated in dPBS containing 6.6 ng ml-1 pHrodo-Red succinimidyl ester (Thermo Fisher) at a cell concentration of 1M ml^−1 for 30 minutes, washed once, and resuspended in DMEM supplemented with 2 mM glutamine, 100 units ml^−1 penicillin, […] streptomycin and 10% heat-inactivated FCS, and containing anti-CD20, anti-CD30, and/or anti-CD47 antibodies, as indicated, at a cell concentration of 1M ml^−1. 220 μl of cell suspensions was added to each well. Plates were transferred to an incubator and imaged every 30 or 60 minutes using an Incucyte (Essen). Total red intensity for each well, averaged over 16 images per well, was calculated after applying a threshold for red intensity that excluded most or all cells at the first time point using top-hat background subtraction. Reported values represent the mean total red fluorescence intensity at each timepoint, minus the total red fluorescence at the initial timepoint (to remove signal from occasional autofluorescent debris), normalized to the initial total green fluorescence signal (to account for small variations in target cell density), of duplicate, triplicate, or quadruplicate wells, as indicated in the legend. […]

Safe^KO Ramos cells = experiment: Time-lapse phagocytosis assay, uptake of pHrodo-labeled Safe^KO Ramos cells by J774 macrophages with anti-CD20 antibodies and GPR84 agonists; conditions: anti-CD20 antibodies, GPR84 agonist added (FIG. 4D)
Method: as §1

[1] = test system: Ramos Burkitt lymphoma cells; experiment: ADCP of Ramos Burkitt lymphoma cells by LPS-activated J774 macrophages; conditions: in the presence of LPS-activated J774 macrophages
Method: For the screens, cells were split into two conditions, each in duplicate: an untreated control group and ADCP treated group. In the ADCP group, for each round of treatment, Ramos cells were incubated with J774 macrophages, which had been seeded into 15 cm plates 48 h prior (at 5 M cells per plate) and treated with LPS (10 ng ml^−1) starting 24 h prior, in the presence of anti-CD20 antibodies (50 ng ml^−1) (CRISPRko screen) or both anti-CD20 antibodies (50 ng ml^−1) and anti-CD47 antibodies (100 ng ml-1) (CRISPRa screen). 25 M Ramos cells were added to each plate and incubated with J774 macrophages for 24 h, and were then removed from the macrophage-containing plates via two rounds of washing with complete RPMI media. Ramos cells were then allowed to recover in T-150 flasks for 24-72 h before the next round of treatment. At the end of the screen, 300 million cells were recovered from each condition and pelleted by centrifugation. […] The sgRNA sequences were amplified and sequenced using an Illumina NextSeq with ˜40 million reads per condition; ˜200× coverage per library element). […]
To establish a scalable platform for genetic screening for regulators of ADCP, conditions for antibody-stimulated uptake of cancer cells by macrophage cell lines were optimized, which, unlike primary macrophages, can readily be cultured at the ultra-high scales necessary for screening. […]

Compound	uptake of APMAP^KO cells (APMAP^KO Ramos cells)	antibody-dependent phagocytosis of Safe^KO cells (Safe^KO Ramos cells)	phagocytosis of Ramos cells [1]
CCCCCCCCNc1cc(=O)[nH]c(=O)[nH]1 [6-OAU, (octylamino) pyrimidine-2,4(1H,3H)-dione]	inhibited	stimulated	
CCCCCCCCCC(=O)O [capric acid]	inhibited	stimulated	
CCCCCCSc1nc(O)cc(=O)[nH]1 [ZQ-16]	inhibited	stimulated	
rituximab-biosimilar anti-CD20 antibodies: rituximab-biosimilar anti-CD20 antibodies used to drive ADCP			high rates of phagocytosis
